Results: patent US20260274891A1, “¿ OPIOID RECEPTOR AGONIST AND USE THEREOF” (CHENGDU AODA BIOTECHNOLOGY CO., LTD., priority 2023, published 2026)
Read-outs that look alike come from different tables or passages of the source. Bridge positions count the residues as written; N and C are the ends. Square brackets hold non-standard residues; d marks the D form. Side chains are listed from the residue outwards. Peptide text beside a SMILES is read from it. I, II: the chains in the order shown. * marks the point of attachment. X3 = NCCCC[C@@H](NC(=O)[C@@H](CCCCN)NC(=O)C1(N)CCN(*)CC1)C(=O)O; X21 = NCCCC[C@H](NC(=O)[C@H](CCCCN)NC(=O)C1(N)CCN(*)CC1)C(N)=O; X12 = CCOc1ccc(C[C@@H](NC(=O)[C@H](N)Cc2ccccc2)C(=O)*)cc1; Piperidin1yl(4-NH2,4-COOH) = NC1(C(=O)O)CCN(*)CC1; Piperidinyl(4-NH2,4-CONH2) = NC(=O)C1(N)CCN(*)CC1; X10 = NCCCC[C@@H](NC(=O)C1(N)CCN(*)CC1)C(=O)O; dAla(cPr) = N[C@H](CC1CC1)C(=O)O; Api = NC1(C(=O)O)CCNCC1

Target: T1, human κ opioid receptor (OPRK1) (Homo sapiens, UniProt P41145)
T1 construct: expressed in transfected cells; host or cells: CHO-K1
T1 sequence (P41145 whole entry): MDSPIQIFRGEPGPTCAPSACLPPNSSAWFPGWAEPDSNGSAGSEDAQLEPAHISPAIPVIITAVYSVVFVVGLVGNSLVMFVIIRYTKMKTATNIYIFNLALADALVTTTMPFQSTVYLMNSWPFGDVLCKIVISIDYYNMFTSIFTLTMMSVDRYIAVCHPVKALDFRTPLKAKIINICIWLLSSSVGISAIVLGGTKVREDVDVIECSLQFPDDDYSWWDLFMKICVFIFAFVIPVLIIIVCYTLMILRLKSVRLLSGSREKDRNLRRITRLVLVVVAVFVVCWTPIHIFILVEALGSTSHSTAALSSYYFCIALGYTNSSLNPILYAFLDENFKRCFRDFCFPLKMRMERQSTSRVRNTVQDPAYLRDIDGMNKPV
Experiment: Determination of activities of κ receptor agonists: inhibition of forskolin-stimulated cAMP release (HTRF) in stably transfected CHO-K1 cells
Assay type: cell-based
Details: for Relative Activity %: relative to Difelikefalin = 100.0
Source text: Gi-coupled human κ opioid receptor (OPRK1), upon stimulation with its specific opioid receptor agonists, can inhibit the intracellular adenylate cyclase pathway, and decrease cAMP levels. Forskolin can stimulate cAMP release in cell lines highly expressing opioid receptors. By stimulating cell lines stably transfected with opioid receptors, the inhibitory effect of a test compound on forskolin-stimulated cAMP release can be measured to determine the activity of the compound. The relative light units (RLU) from the cells after stimulation with different doses were measured via the homogeneous time-resolved fluorescence technique (HTRF), and the EC50 value of the agonist was subsequently calculated. This activity determination method is a currently commonly used method for determining the activities of opioid receptor agonists at home and abroad.
A CHO-K1 cell line stably expressing opioid receptors was used. Stably transfected cells were stimulated with various concentrations of agonists (under the stimulation of a certain concentration of forskolin). The relative light units from the cells after stimulation with different doses were measured, from which the EC50 value of the agonist was subsequently obtained by calculation.

[1] = CHO-K1 cell line stably expressing opioid receptors, forskolin-stimulated cAMP, HTRF, read-out: EC50

SMILES	EC50	Relative Activity %	EC50 [1]
CC(C)C[C@@H](NC(=O)[C@@H](Cc1ccc(C(C)C)cc1)NC(=O)[C@H](N)Cc1ccccc1)C(=O)N[C@H](CCCCN)C(=O)N1CCC(N)(C(=O)N[C@H](CCCCN)C(N)=O)CC1 [Compound 137, D-Phe-D-Phe(4-Ipr)-D-Leu-D-Lys-4-aminopiperidine-4-carboxamide-D-Lys-NH2]	0.143 nM	423.1%	
CCOc1ccc(C[C@@H](NC(=O)[C@H](N)Cc2ccccc2)C(=O)N[C@H](CC(C)C)C(=O)N[C@H](CCCCN)C(=O)N2CCC(N)(C(=O)NCC(=O)NCC(=O)N[C@@H](CCCCN)C(N)=O)CC2)cc1 [Compound 51, D-Phe-D-Tyr(Et)-D-Leu-D-Lys-4-aminopiperidine-4-carboxamide-Gly-Gly-Lys-NH2] (I: H-[Api]GGK-NH2 / II: H-[dF][dY](Et)[dL][dK]; amide I:1-II:C; N-terminus assumed)	0.0477 nM	1273.0%	
CC(C)C[C@@H](NC(=O)[C@@H](Cc1ccc(F)cc1)NC(=O)[C@H](N)Cc1ccccc1)C(=O)N[C@H](CCCCN)C(=O)N1CCC(N)(C(=O)O)CC1 [Compound 104, D-Phe-D-Phe(4-F)-D-Leu-D-Lys-4-aminopiperidine-4-carboxamide-OH]	0.215 nM	281.9%	
CCOc1ccc(C[C@@H](NC(=O)[C@H](N)Cc2ccccc2)C(=O)N[C@H](CC(C)C)C(=O)N[C@H](CCCCN)C(=O)N2CCC(N)(C(=O)N[C@H](CCCCN)C(=O)O)CC2)cc1 [Compound 16, D-Phe-D-Tyr(Et)-D-Leu-D-Lys-4-aminopiperidine-4-carboxamide-D-Lys-OH] (H-[dF][dY](Et)[dL][dK]-X10; N-terminus assumed)	0.0431 nM	1408.8%	
CC(C)C[C@@H](NC(=O)[C@@H](Cc1ccc(Cl)cc1)NC(=O)[C@H](N)Cc1ccccc1)C(=O)N[C@H](CCCCN)C(=O)N1CCC(N)(C(=O)O)CC1 [Compound 110, D-Phe-D-Phe(4-C1)-D-Leu-D-Lys-4-aminopiperidine-4-carboxamide-OH]	0.149 nM	408.6%	
CCOc1ccc(C[C@@H](NC(=O)[C@H](N)Cc2ccccc2)C(=O)N[C@H](CC(C)C)C(=O)N[C@H](CCCCN)C(=O)N2CCC(N)(C(=O)NCC(=O)NCC(=O)NCC(=O)N[C@H](CCCCN)C(N)=O)CC2)cc1 [Compound 57, D-Phe-D-Tyr(Et)-D-Leu-D-Lys-4-aminopiperidine-4-carboxamide-Gly-Gly-Gly-D-Lys-NH2] (H-[Api]([dK-dL-X12])GGG[dK]-NH2; N-terminus assumed)	0.0514 nM	1181.3%	
CC(C)C[C@@H](NC(=O)[C@@H](Cc1ccc(F)cc1)NC(=O)[C@H](N)Cc1ccccc1)C(=O)N[C@H](CCCCN)C(=O)N1CCC(N)(C(=O)N[C@@H](CCCCN)C(N)=O)CC1 [Compound 105, D-Phe-D-Phe(4-F)-D-Leu-D-Lys-4-aminopiperidine-4-carboxamide-Lys-NH2]	0.0796 nM	762.8%	
CCc1ccc(C[C@@H](NC(=O)[C@H](N)Cc2ccccc2)C(=O)N[C@H](CC(C)C)C(=O)N[C@H](CCCCN)C(=O)N2CCC(N)(C(=O)N[C@@H](CCCCN)C(=O)O)CC2)cc1 [Compound 132, D-Phe-D-Phe(4-Et)-D-Leu-D-Lys-4-aminopiperidine-4-carboxamide-Lys-OH]	0.13 nM	465.6%	
CCOc1ccc(C[C@@H](NC(=O)[C@H](N)Cc2ccccc2)C(=O)N[C@H](CC(C)C)C(=O)N[C@H](CCCCN)C(=O)N2CCC(N)(C(=O)N[C@@H](CCCCN)C(=O)N[C@@H](CCCCN)C(N)=O)CC2)cc1 [Compound 5, D-Phe-D-Tyr(Et)-D-Leu-D-Lys-4-aminopiperidine-4-carboxamide-Lys-Lys-NH2] (H-[dF][dY](Et)[dL][dK]-X21; N-terminus assumed)	0.041 nM	1481.0%	
CCOc1ccc(C[C@@H](NC(=O)[C@H](N)Cc2ccccc2)C(=O)N[C@H](CC2CC2)C(=O)N[C@H](CCCCN)C(=O)N2CCC(N)(C(=O)O)CC2)cc1 [Compound 68, D-Phe-D-Tyr(Et)-D-cyclopropylalanine-D-Lys-4-aminopiperidine-4-carboxamide-OH] (H-[dF][dY](Et)[dAla(cPr)][dK]-{Piperidin1yl(4-NH2,4-COOH)}; N-terminus assumed)		483.4%	0.126 nM
CC(C)C[C@@H](NC(=O)[C@@H](Cc1ccc(Cl)cc1)NC(=O)[C@H](N)Cc1ccccc1)C(=O)N[C@H](CCCCN)C(=O)N1CCC(N)(C(=O)N[C@@H](CCCCN)C(N)=O)CC1 [Compound 111, D-Phe-D-Phe(4-C1)-D-Leu-D-Lys-4-aminopiperidine-4-carboxamide-Lys-NH2]	0.0521 nM	1165.5%	
CC(C)C[C@@H](NC(=O)[C@@H](Cc1ccc(I)cc1)NC(=O)[C@H](N)Cc1ccccc1)C(=O)N[C@H](CCCCN)C(=O)N1CCC(N)(C(=O)N[C@H](CCCCN)C(N)=O)CC1 [Compound 125, D-Phe-D-Phe(4-I)-D-Leu-D-Lys-4-aminopiperidine-4-carboxamide-D-Lys-NH2]	0.055 nM	1104.0%	
CCOc1ccc(C[C@@H](NC(=O)[C@H](N)Cc2ccccc2)C(=O)N[C@H](CC2CC2)C(=O)N[C@H](CCCCN)C(=O)N2CCC(N)(C(N)=O)CC2)cc1 [Compound 67, D-Phe-D-Tyr(Et)-D-cyclopropylalanine-D-Lys-4-aminopiperidine-4-carboxamide-NH2] (H-[dF][dY](Et)[dAla(cPr)][dK]-{Piperidinyl(4-NH2,4-CONH2)}; N-terminus assumed)		477.7%	0.127 nM
CC(C)C[C@@H](NC(=O)[C@@H](Cc1ccc(Br)cc1)NC(=O)[C@H](N)Cc1ccccc1)C(=O)N[C@H](CCCCN)C(=O)N1CCC(N)(C(=O)N[C@H](CCCCN)C(N)=O)CC1 [Compound 119, D-Phe-D-Phe(4-Br)-D-Leu-D-Lys-4-aminopiperidine-4-carboxamide-D-Lys-NH2]	0.0615 nM	987.3%	
CCOc1ccc(C[C@@H](NC(=O)[C@H](N)Cc2ccccc2)C(=O)N[C@H](CC(C)C)C(=O)N[C@H](CCCCN)C(=O)N2CCC(N)(C(=O)NCC(=O)NCC(=O)NCC(=O)NCC(=O)NCC(=O)N[C@H](CCCCN)C(N)=O)CC2)cc1 [Compound 65, D-Phe-D-Tyr(Et)-D-Leu-D-Lys-4-aminopiperidine-4-carboxamide-Gly-Gly-Gly-Gly-Gly-D-Lys-NH2] (H-[Api]([dK-dL-X12])GGGGG[dK]-NH2; N-terminus assumed)	0.0884 nM	686.9%	
CCOc1ccc(C[C@@H](NC(=O)[C@H](N)Cc2ccccc2)C(=O)N[C@H](CC(C)C)C(=O)N[C@H](CCCCN)C(=O)N2CCC(N)(C(=O)N[C@H](CCCCN)C(=O)N[C@H](CCCCN)C(=O)N[C@H](CCCCN)C(=O)N[C@H](CCCCN)C(=O)N[C@H](CCCCN)C(=O)N[C@H](CCCCN)C(N)=O)CC2)cc1 [Compound 25, D-Phe-D-Tyr(Et)-D-Leu-D-Lys-4-aminopiperidine-4-carboxamide-D-Lys-D-Lys-D-Lys-D-Lys -D-Lys-D-Lys-NH2] (H-[Api]([dK-dL-X12])[dK][dK][dK][dK][dK][dK]-NH2; N-terminus assumed)	0.0684 nM	887.7%	
CCOc1ccc(C[C@@H](NC(=O)[C@H](N)Cc2ccccc2)C(=O)N[C@H](CC(C)C)C(=O)N[C@H](CCCCN)C(=O)N2CCC(N)(C(=O)N[C@H](CCCCN)C(=O)N[C@H](CCCCN)C(=O)O)CC2)cc1 [Compound 18, D-Phe-D-Tyr(Et)-D-Leu-D-Lys-4-aminopiperidine-4-carboxamide-D-Lys-D-Lys-OH] (H-[dF][dY](Et)[dL][dK]-X3; N-terminus assumed)	0.046 nM	1320.0%	
CCOc1ccc(C[C@@H](NC(=O)[C@H](N)Cc2ccccc2)C(=O)N[C@H](CC(C)C)C(=O)N[C@H](CCCCN)C(=O)N2CCC(N)(C(=O)N[C@@H](CCCCN)C(=O)N[C@@H](CCCCN)C(=O)N[C@@H](CCCCN)C(=O)N[C@@H](CCCCN)C(=O)O)CC2)cc1 [Compound 10, D-Phe-D-Tyr(Et)-D-Leu-D-Lys-4-aminopiperidine-4-carboxamide-Lys-Lys-Lys-Lys-OH] (H-[Api]([dK-dL-X12])KKKK-OH; N-terminus assumed)	0.0463 nM	1311.4%	
CC(C)C[C@@H](NC(=O)[C@@H](Cc1ccc(I)cc1)NC(=O)[C@H](N)Cc1ccccc1)C(=O)N[C@H](CCCCN)C(=O)N1CCC(N)(C(=O)O)CC1 [Compound 122, D-Phe-D-Phe(4-I)-D-Leu-D-Lys-4-aminopiperidine-4-carboxamide-OH]	0.12 nM	505.6%	
CC(C)C[C@@H](NC(=O)[C@@H](Cc1ccc(N)cc1)NC(=O)[C@H](N)Cc1ccccc1)C(=O)N[C@H](CCCCN)C(=O)N1CCC(N)(C(=O)N[C@H](CCCCN)C(N)=O)CC1 [Compound 141, D-Phe-D-Phe(4-NH2)-D-Leu-D-Lys-4-aminopiperidine-4-carboxamide-D-Lys-NH2]	0.112 nM	543.1%	
